What all share (assay): relative viability (nuclei count vs DMSO), 5 days (fraction); higher = more cells survive
Compound in the assay “IMD-0354 + Lapatinib”: O=C(Nc1cc(C(F)(F)F)cc(C(F)(F)F)c1)c1cc(Cl)ccc1O [IMD-0354] + CS(=O)(=O)CCNCc1ccc(-c2ccc3ncnc(Nc4ccc(OCc5cccc(F)c5)c(Cl)c4)c3c2)o1 [Lapatinib] (partner 2 µM)
A digest of the protocol:
(§1)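 Lung cancer cell lines in 1536-well plates got either a single drug or a fixed anchor-drug dose together with five library-drug doses (not always all listed) in √10 steps, by pin tool, on the day after seeding. Nuclei were counted after 5 days, and relative viability is the treated-to-vehicle ratio of nuclei counts. Values are medians of duplicate plates.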

Compound in the assay “IMD-0354 + AZD7762”: O=C(Nc1cc(C(F)(F)F)cc(C(F)(F)F)c1)c1cc(Cl)ccc1O [IMD-0354] + NC(=O)Nc1cc(-c2cccc(F)c2)sc1C(=O)N[C@H]1CCCNC1 [AZD7762] (partner 0.2 µM)
The method, boiled down:
as §1

Compound in the assay “IMD-0354 + Luminespib”: O=C(Nc1cc(C(F)(F)F)cc(C(F)(F)F)c1)c1cc(Cl)ccc1O [IMD-0354] + CCNC(=O)c1noc(-c2cc(C(C)C)c(O)cc2O)c1-c1ccc(CN2CCOCC2)cc1 [Luminespib] (partner 0.01 µM)
The method, boiled down:
as §1

Compound in the assay “CX-5461 + OSI-027”: Cc1cnc(CNC(=O)c2c(=O)c3ccc(N4CCCN(C)CC4)nc3n3c2sc2ccccc23)cn1 [CX-5461] + COc1cccc2cc(-c3nc([C@H]4CC[C@H](C(=O)O)CC4)n4ncnc(N)c34)[nH]c12 [OSI-027] (partner 0.5 µM)
The method, boiled down: as §1

With Calu-6, the relative viability was found to be 0.983 with IMD-0354 + Lapatinib (first compound 0.04 µM); 1.1 in the assay with IMD-0354 + Lapatinib (first compound 0.1265 µM); 0.6 in the assay with IMD-0354 + Lapatinib (first compound 0.4 µM); 0.223 with IMD-0354 + Lapatinib (first compound 1.265 µM); 0.2 with IMD-0354 + Lapatinib (first compound 4 µM).

Regarding ChaGo-K-1, the relative viability with IMD-0354 + AZD7762 (first compound 0.04 µM) came to 0.912; with IMD-0354 + AZD7762 (first compound 0.1265 µM), 0.937; in the assay with IMD-0354 + AZD7762 (first compound 0.4 µM), 0.596; in the assay with IMD-0354 + AZD7762 (first compound 1.265 µM) it was 0.218; with IMD-0354 + AZD7762 (first compound 4 µM), 0.254; with IMD-0354 + Luminespib (first compound 0.04 µM), 0.639. In addition, the relative viability in the assay with IMD-0354 + Luminespib (first compound 0.1265 µM) was 0.566; in the assay with IMD-0354 + Luminespib (first compound 0.4 µM), 0.364; in the assay with IMD-0354 + Luminespib (first compound 1.265 µM), 0.223; in the assay with IMD-0354 + Luminespib (first compound 4 µM), 0.228; in the assay with CX-5461 + OSI-027 (first compound 0.01 µM), 0.578; with CX-5461 + OSI-027 (first compound 0.03162 µM), 0.636. Further, the relative viability with CX-5461 + OSI-027 (first compound 0.1 µM) amounted to 0.537; with CX-5461 + OSI-027 (first compound 0.3162 µM), 0.331; in the assay with CX-5461 + OSI-027 (first compound 1 µM), 0.315.

Consider EBC-1, for which the relative viability with IMD-0354 + Lapatinib (first compound 0.04 µM) is 0.163; with IMD-0354 + Lapatinib (first compound 0.1265 µM) it was 0.202; in the assay with IMD-0354 + Lapatinib (first compound 0.4 µM), 0.251; with IMD-0354 + Lapatinib (first compound 1.265 µM), 0.168; in the assay with IMD-0354 + Lapatinib (first compound 4 µM) it was 0.249.

With EKVX, the relative viability in the assay with IMD-0354 + AZD7762 (first compound 0.04 µM) came out at 0.741; in the assay with IMD-0354 + AZD7762 (first compound 0.1265 µM) it was 0.625; with IMD-0354 + AZD7762 (first compound 1.265 µM), 0.328; with IMD-0354 + AZD7762 (first compound 4 µM), 0.21; with IMD-0354 + Lapatinib (first compound 0.04 µM), 0.406; with IMD-0354 + Lapatinib (first compound 0.1265 µM), 0.203. Moreover, the relative viability in the assay with IMD-0354 + Lapatinib (first compound 1.265 µM) was 0.128; in the assay with IMD-0354 + Lapatinib (first compound 4 µM) it was 0.134; in the assay with IMD-0354 + Luminespib (first compound 0.04 µM), 1.05; with IMD-0354 + Luminespib (first compound 0.1265 µM) it was 0.672; with IMD-0354 + Luminespib (first compound 0.4 µM), 0.783; in the assay with IMD-0354 + Luminespib (first compound 1.265 µM), 0.767. For the same cell line, the relative viability with IMD-0354 + Luminespib (first compound 4 µM) turned out to be 0.117; in the assay with CX-5461 + OSI-027 (first compound 0.01 µM), 0.745; with CX-5461 + OSI-027 (first compound 0.03162 µM), 0.676; with CX-5461 + OSI-027 (first compound 0.1 µM), 0.786; in the assay with CX-5461 + OSI-027 (first compound 0.3162 µM), 0.734; with CX-5461 + OSI-027 (first compound 1 µM), 0.688.

Take EMC-BAC-2: the relative viability with IMD-0354 + AZD7762 (first compound 0.04 µM) was 1.19; in the assay with IMD-0354 + AZD7762 (first compound 0.1265 µM) it was 1.13; in the assay with IMD-0354 + AZD7762 (first compound 0.4 µM), 0.822; with IMD-0354 + AZD7762 (first compound 1.265 µM), 0.443; with IMD-0354 + AZD7762 (first compound 4 µM) it was 0.433; in the assay with IMD-0354 + Lapatinib (first compound 0.04 µM), 0.965. The relative viability with IMD-0354 + Lapatinib (first compound 0.1265 µM) is 0.803; in the assay with IMD-0354 + Lapatinib (first compound 0.4 µM) it was 0.555; with IMD-0354 + Lapatinib (first compound 1.265 µM), 0.408; in the assay with IMD-0354 + Lapatinib (first compound 4 µM), 0.229; with IMD-0354 + Luminespib (first compound 0.04 µM) it was 1.28; with IMD-0354 + Luminespib (first compound 0.1265 µM) it was 1.13. In addition, the relative viability with IMD-0354 + Luminespib (first compound 0.4 µM) stood at 0.537; with IMD-0354 + Luminespib (first compound 1.265 µM), 0.651; with IMD-0354 + Luminespib (first compound 4 µM), 0.284; with CX-5461 + OSI-027 (first compound 0.01 µM), 0.334; with CX-5461 + OSI-027 (first compound 0.03162 µM), 0.376; with CX-5461 + OSI-027 (first compound 0.1 µM), 0.338. Besides, the values for the relative viability in the assay with CX-5461 + OSI-027 (first compound 0.3162 µM) and with CX-5461 + OSI-027 (first compound 1 µM) were 0.322 and 0.242, respectively.

Regarding EPLC-272H, the relative viability with IMD-0354 + AZD7762 (first compound 0.04 µM) was 0.167; with IMD-0354 + AZD7762 (first compound 0.1265 µM), 0.217; in the assay with IMD-0354 + AZD7762 (first compound 0.4 µM) it was 0.162; with IMD-0354 + AZD7762 (first compound 1.265 µM), 0.19; in the assay with IMD-0354 + AZD7762 (first compound 4 µM), 0.118; with IMD-0354 + Lapatinib (first compound 0.04 µM) it was 1.32. The relative viability in the assay with IMD-0354 + Lapatinib (first compound 0.1265 µM) stood at 0.944; in the assay with IMD-0354 + Lapatinib (first compound 0.4 µM), 0.618; with IMD-0354 + Lapatinib (first compound 1.265 µM) it was 0.716; with IMD-0354 + Lapatinib (first compound 4 µM), 0.205; in the assay with IMD-0354 + Luminespib (first compound 0.04 µM), 0.51; with IMD-0354 + Luminespib (first compound 0.1265 µM), 0.322. Besides, the relative viability was 0.409 in the assay with IMD-0354 + Luminespib (first compound 0.4 µM); 0.22 with IMD-0354 + Luminespib (first compound 1.265 µM); 0.131 in the assay with IMD-0354 + Luminespib (first compound 4 µM); 0.259 in the assay with CX-5461 + OSI-027 (first compound 0.01 µM); 0.288 in the assay with CX-5461 + OSI-027 (first compound 0.03162 µM); 0.297 in the assay with CX-5461 + OSI-027 (first compound 0.1 µM). Besides, the relative viability with CX-5461 + OSI-027 (first compound 1 µM) was found to be 0.31.

Consider H3255, for which the relative viability with IMD-0354 + AZD7762 (first compound 0.04 µM) was 0.812; in the assay with IMD-0354 + AZD7762 (first compound 0.1265 µM), 1; with IMD-0354 + AZD7762 (first compound 0.4 µM), 0.573; in the assay with IMD-0354 + AZD7762 (first compound 1.265 µM) it was 0.385; with IMD-0354 + AZD7762 (first compound 4 µM), 0.274; in the assay with IMD-0354 + Lapatinib (first compound 0.04 µM) it was 0.189. Further, the relative viability in the assay with IMD-0354 + Lapatinib (first compound 0.1265 µM) turned out to be 0.246; in the assay with IMD-0354 + Lapatinib (first compound 0.4 µM), 0.276; in the assay with IMD-0354 + Lapatinib (first compound 1.265 µM), 0.17; with IMD-0354 + Lapatinib (first compound 4 µM), 0.207; with IMD-0354 + Luminespib (first compound 0.04 µM), 0.776; with IMD-0354 + Luminespib (first compound 0.1265 µM), 0.845. For the same cell line, the relative viability worked out at 0.778 in the assay with IMD-0354 + Luminespib (first compound 0.4 µM); 0.293 with IMD-0354 + Luminespib (first compound 1.265 µM); 0.285 with IMD-0354 + Luminespib (first compound 4 µM); 0.568 in the assay with CX-5461 + OSI-027 (first compound 0.01 µM); 0.542 in the assay with CX-5461 + OSI-027 (first compound 0.03162 µM); 0.559 with CX-5461 + OSI-027 (first compound 0.1 µM). The relative viability was found to be 0.543 in the assay with CX-5461 + OSI-027 (first compound 0.3162 µM) and 0.568 with CX-5461 + OSI-027 (first compound 1 µM).

As for HCC-78, the relative viability was determined as 0.783 in the assay with IMD-0354 + AZD7762 (first compound 0.04 µM); 0.658 in the assay with IMD-0354 + AZD7762 (first compound 0.1265 µM); 0.543 with IMD-0354 + AZD7762 (first compound 0.4 µM); 0.672 with IMD-0354 + AZD7762 (first compound 1.265 µM); 0.485 with IMD-0354 + AZD7762 (first compound 4 µM); 1.16 with IMD-0354 + Lapatinib (first compound 0.04 µM). The relative viability came out at 0.889 with IMD-0354 + Lapatinib (first compound 0.1265 µM); 0.729 in the assay with IMD-0354 + Lapatinib (first compound 0.4 µM); 0.0878 in the assay with IMD-0354 + Lapatinib (first compound 1.265 µM); 0.234 with IMD-0354 + Lapatinib (first compound 4 µM); 0.409 with CX-5461 + OSI-027 (first compound 0.01 µM); 0.362 with CX-5461 + OSI-027 (first compound 0.03162 µM). For the same cell line, the results for the relative viability with CX-5461 + OSI-027 (first compound 0.1 µM), with CX-5461 + OSI-027 (first compound 0.3162 µM) and in the assay with CX-5461 + OSI-027 (first compound 1 µM) were 0.366, 0.363 and 0.354, respectively.

HCC-366: the relative viability was found to be 0.277 with IMD-0354 + AZD7762 (first compound 0.04 µM); 0.361 in the assay with IMD-0354 + AZD7762 (first compound 0.1265 µM); 0.148 with IMD-0354 + AZD7762 (first compound 0.4 µM); 0.0408 in the assay with IMD-0354 + AZD7762 (first compound 1.265 µM); 0.048 in the assay with IMD-0354 + AZD7762 (first compound 4 µM); 0.91 in the assay with IMD-0354 + Lapatinib (first compound 0.04 µM). Also, the relative viability with IMD-0354 + Lapatinib (first compound 0.1265 µM) was 1.41; with IMD-0354 + Lapatinib (first compound 0.4 µM), 0.118; in the assay with IMD-0354 + Lapatinib (first compound 1.265 µM), 0.0814; with IMD-0354 + Lapatinib (first compound 4 µM), 0.0302; in the assay with CX-5461 + OSI-027 (first compound 0.01 µM), 0.987; with CX-5461 + OSI-027 (first compound 0.03162 µM), 1. Moreover, the relative viability is 0.89 with CX-5461 + OSI-027 (first compound 0.1 µM), 0.764 with CX-5461 + OSI-027 (first compound 0.3162 µM) and 0.175 in the assay with CX-5461 + OSI-027 (first compound 1 µM).

Values taken from the supplement of paper PMC10307832.
